What was measured:
[1] = system: rice blast fungus (Magnaporthe grisea); type: in vivo; conditions: rice (Nipponbare), 500 ppm foliar spray, contact with infected seedling, 6 days
[2] = system: wheat rust fungus (Puccinia recondita); test: Test Example 2: wheat rust, foliar spray preventive test; type: in vivo; conditions: wheat (Shirogane), 500 ppm foliar spray, inoculated 5 days after spraying, assessed after 1 + 8 days

Row | SMILES | lesion areas on treated plant relative to non-treated plant [1] [%] | area of the lesion on treated plant relative to untreated plant [2] [%]
1 | COC(=O)Nc1cccc(C)c1COc1ccc(-c2nccc(C)n2)cc1C [Compound 2] | ≤ 30 | 
2 | COC(=O)Nc1ccccc1COc1ccc(-c2ncccn2)cc1 [methyl N-(2-{[4-(pyrimidine-2-yl)phenoxy)methyl}phenyl)carbamate] |  | ≥ 70

From patent publication US10194662B2, “Carbamate compound and use thereof” (SUMITOMO CHEMICAL COMPANY, LIMITED, priority 2015, dated 2019)
